Experimental data taken from ChEMBL document CHEMBL1130432, “Neuritogenic effect of epolactaene derivatives on human neuroblastoma cells which lack high-affinity nerve growth factor receptors” (1997).

Tests used:
Assay type in all cases: functional, Homo sapiens
[1] = test system: SH-SY5Y; assay: Ability to induce neurite outgrowth in SH-SY5Y cells measured as percentage of neurite bearing cells/total cells at 25.4 uM; Range is 5-20%
[2] = test system: SH-SY5Y; assay: Ability to induce neurite outgrowth in SH-SY5Y cells measured as percentage of neurite bearing cells/total cells at 98.8 uM; Range is 5-20%
[3] = test system: SH-SY5Y; assay: Ability to induce neurite outgrowth in SH-SY5Y cells measured as percentage of neurite bearing cells/total cells at 59.4 uM
[4] = test system: SH-SY5Y; assay: Ability to induce neurite outgrowth in SH-SY5Y cells measured as percentage of neurite bearing cells/total cells at 29.5 uM; Range is 5-20%
[5] = test system: SH-SY5Y; assay: Ability to induce neurite outgrowth in SH-SY5Y cells measured as percentage of neurite bearing cells/total cells at 17.8 uM; Range is 20-40%
[6] = test system: SH-SY5Y; assay: Ability to induce neurite outgrowth in SH-SY5Y cells measured as percentage of neurite bearing cells/total cells at 118.8 uM; Range is 5-20%

CCCCCCCCCCCCCCCCN1C(=O)C(C(C)=O)=C(C)C1(C)O (stereo unspecified)
Neurite bearing cells/total cells [1]: 20%

CCCCCCOC1(C)NC(=O)C(C(C)=O)=C1C (stereo unspecified)
Neurite bearing cells/total cells [2]: 20%

CCCCCCCCCCCCCCCCCCOC1(C)NC(=O)C(C(C)=O)=C1C (stereo unspecified)
Neurite bearing cells/total cells [3]: >40%

CCCCCCCCCCCCN1C(=O)C(C(C)=O)=C(C)C1(C)O (stereo unspecified)
Neurite bearing cells/total cells [4]: 20%

CCCCCCCCN1C(=O)C(C(C)=O)=C(C)C1(C)O (stereo unspecified)
Neurite bearing cells/total cells [5]: 40%

CCCCCCCCCCCCCCCCCCN1C(=O)C(C(C)=O)=C(C)C1(C)O (stereo unspecified)
Neurite bearing cells/total cells [6]: 20%
